Measurements as given in patent US9815851B2, “Pyrrolo carboxamides as modulators of orphan nuclear receptor RAR-related orphan receptor-gamma (RORγ, NR1F3) activity and for the treatment of chronic inflammatory and autoimmune diseases” (PHENEX PHARMACEUTICALS AG, priority 2011, dated 2017).
Like-named read-outs stand apart in the source and are kept apart here.

Legend:
RORγ = target: T1, RORγ (UniProt P51449); experiment: RORγ Gal4 Reporter Gene Assay in 293T cells (firefly and renilla luciferase); assay type: cell-based, human
T1 sequence (P51449 1-518): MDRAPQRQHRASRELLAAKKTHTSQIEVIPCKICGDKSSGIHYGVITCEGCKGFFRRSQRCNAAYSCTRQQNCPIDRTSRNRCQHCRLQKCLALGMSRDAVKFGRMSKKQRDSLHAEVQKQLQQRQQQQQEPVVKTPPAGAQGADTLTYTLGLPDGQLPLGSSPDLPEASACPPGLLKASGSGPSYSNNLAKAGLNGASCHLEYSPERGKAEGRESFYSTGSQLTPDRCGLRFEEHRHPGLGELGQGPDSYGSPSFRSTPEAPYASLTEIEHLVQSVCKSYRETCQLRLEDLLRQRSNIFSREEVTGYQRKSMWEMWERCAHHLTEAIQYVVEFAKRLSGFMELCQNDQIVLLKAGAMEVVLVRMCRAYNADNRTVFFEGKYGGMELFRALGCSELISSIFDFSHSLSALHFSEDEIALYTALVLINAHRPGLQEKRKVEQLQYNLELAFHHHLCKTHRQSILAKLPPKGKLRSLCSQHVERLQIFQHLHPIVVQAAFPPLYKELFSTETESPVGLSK

[1] = target: T2, RORγ ligand binding domain (LBD) (Homo sapiens, UniProt P51449); experiment: TR-FRET Activity Assay (ligand sensing, RORγ-LBD / coactivator peptide interaction, LANCE); assay type: biochemical
T2 construct: made in house; host or cells: E. coli BL-21 (BL3), vector pDEST15
T2 sequence (P51449 269-508 limits assumed): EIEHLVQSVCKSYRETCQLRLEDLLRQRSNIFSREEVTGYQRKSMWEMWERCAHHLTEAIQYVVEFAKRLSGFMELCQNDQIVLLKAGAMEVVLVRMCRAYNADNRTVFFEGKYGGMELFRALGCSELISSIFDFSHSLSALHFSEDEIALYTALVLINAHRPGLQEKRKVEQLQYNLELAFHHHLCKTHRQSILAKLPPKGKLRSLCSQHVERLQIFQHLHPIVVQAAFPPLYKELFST

[2] = second value of the cell, Gal4 reporter gene assay in 293T cells, firefly luciferase
[3] = third value of the cell, Gal4 reporter gene assay in 293T cells, renilla normalised luciferase
[4] = first value of the cell FRET/FF/REN, TR-FRET activity assay, read-out: pIC50 (FRET) (converted)

Structure (SMILES)	pIC50 (FF) (RORγ; [2])	pIC50 (REN) (RORγ; [3])	IC50 [1, 4] [nM]	pIC50 (FF) (RORγ)	pIC50 (REN) (RORγ)	IC50 [1] [nM]
Cc1c(C(=O)N[C@H]2C[C@H](C(=O)O)C2)cc(-c2cc(OC(F)(F)F)cc(C3(C)CC3)c2)n1CC1CCCCC1 [17/350]	7.7	7.7	1000			
Cc1c(C(=O)NC2CCOCC2)cc(-c2ccc(S(=O)(=O)NC(C)(C)C)c(C(F)(F)F)c2)n1[C@@H](C)C1CCCCC1 [17/253]	7.0	7.2	631			
CCC(C)(C)NS(=O)(=O)c1ccc(-c2cc(C(=O)NC3CCOCC3)c(C)n2CC2CCC2)cc1C(F)(F)F [17/217]	7.6	7.7	126			
Cc1c(C(=O)N[C@H]2C[C@H](C(=O)O)C2)cc(-c2cc(Cl)cc(C3(C)CC3)c2)n1CC1CCCCC1 [17/299]	7.1	7.5	5010			
Cc1c(C(=O)NC2CC2)cc(-c2cc(C(C)(C)C)cc(C3(C)CC3)c2)n1CC1CCCCC1 [1/83]	6.9	7.0	316			
Cc1c(C(=O)NC2CCOCC2)cc(-c2cc(C(C)(C)O)cc(C(F)(F)F)c2)n1CC1CCCCC1 [17/306]	6.8	6.9	1580			
CC(C)(C)NS(=O)(=O)c1ccc(-c2cc(C(=O)NC3CCOCC3)c(Cl)n2CC2CCCCC2)c2ccccc12 [22/1]				6.8/8.4/8.4	6.8/8.4/8.4	158
Cc1c(C(=O)N[C@H]2C[C@H](C(=O)O)C2)cc(-c2ccc(S(=O)(=O)NC3(C#N)CC3)c(C(F)(F)F)c2)n1CC1CCCCC1 [17/362]	5.9	5.8	1260			
CC(C)(C)NS(=O)(=O)c1ccc(-c2cc(C(=O)NC3CCOCC3)c(F)n2CC2CCCCC2)cc1C(C)(C)C [Example 20, 5-(3-(tert-Butyl)-4-(N-(tert-butyl)sulfamoyl)phenyl)-1-(cyclohexylmethyl)-2-fluoro-N-(tetrahydro-2H-pyran-4-yl)-1H-pyrrole-3-carboxamide]	7.4	7.5	398			
Cc1c(C(=O)NCCCCCO)cc(-c2cc(C(C)(C)C)c3c(c2)C2(CCO3)CC2)n1CC1CCCCC1 [1/40]				6.6/7.5/7.6	6.6/7.5/7.6	251
Cc1c(C(=O)NCC(C)(C)C(=O)N2CCOCC2)cc(-c2cc(C(C)(C)C)c3c(c2)C2(CCO3)CC2)n1CC1CCCCC1 [Example 11, 5(8-(tert-Butyl)spiro[chroman-4,1′-cyclopropan]-6-yl)-1-(cyclohexylmethyl)-N-(2,2-dimethyl-3-morpholino-3-oxopropyl)-2-methyl-1H-pyrrole-3-carboxamide]	6.5	6.5	251			
Cc1c(C(=O)NC2CCOCC2)cc(-c2ccc(S(=O)(=O)NC(C)(C)CC(F)(F)F)c(C(F)(F)F)c2)n1CC1CCCCC1 [17/143]	8.2	8.2	126			
Cc1c(C(=O)NCC(C)(C)C(N)=O)cc(-c2cc(C(C)(C)C)cc(C3(C)CC3)c2)n1CC1CCCCC1 [1/85]	7.7	7.7	316			
Cc1c(C(=O)NC2CCOCC2)cc(-c2ccc(S(=O)(=O)NC(C)(C)C)c(C(F)(F)F)c2)n1CC1CCC(F)CC1 (stereo not drawn) [17/257]				6.3/7.4/7.6	6.3/7.4/7.6	501
Cc1c(C(=O)NC2CC2)cc(-c2ccc(S(=O)(=O)NC(C)(C)C)c(C(C)(C)C)c2)n1CC1CCCCC1 [17/99]	6.9	7.0	251			
Cc1c(C(=O)NCC(C)(C)C(N)=O)cc(-c2cc(C(C)(C)C)cc(C(C)(C)C)c2)n1CC1CCCCC1 [1/3]				6.4/7.6/7.5	6.4/7.6/7.5	398
Cc1c(C(=O)NCCC(C)(C)C(=O)O)cc(-c2cc(C(C)(C)O)cc(C(F)(F)F)c2)n1CC1CCCCC1 [17/308]	6.5	6.4	6310			

Structure (SMILES)	pIC50 (FF) (RORγ; [2])	pIC50 (REN) (RORγ; [3])	IC50 [1, 4] [nM]	pIC50 (FF) (RORγ)	pIC50 (REN) (RORγ)	IC50 [1] [nM]
Cc1c(C(=O)N[C@H]2C[C@H](C(=O)O)C2)cc(-c2cc(C(=O)NC(C)(C)C)cc(C(C)(C)C)c2)n1CC1CCCCC1 [17/330]	7.3	7.4	2510			
Cc1c(C(=O)NCc2nc(C(N)=O)co2)cc(-c2cc(C(C)(C)C)c3c(c2)C2(CCO3)CC2)n1CC1CCCCC1 [17/17]				6.1/6.3/6.4	6.1/6.3/6.4	794
Cc1c(C(=O)N2CC3(CCS(=O)(=O)CC3)C2)cc(-c2ccc(S(=O)(=O)NC(C)(C)C)c3ccccc23)n1CC1CCCCC1 [17/270]	7.8	8.0	631			
Cc1c(C(=O)NCC(C)(C)NC(=O)CCC(=O)O)cc(-c2cc(C(C)(C)C)c3c(c2)C2(CCO3)CC2)n1CC1CCCCC1 [17/29]	6.8	6.7	1260			
Cc1c(C(=O)N[C@H]2C[C@H](C(=O)O)C2)cc(-c2ccc(S(=O)(=O)NC(C)(C)C)c(Cl)c2Cl)n1CC1CCCCC1 [17/277]	7.2	7.2	398			
Cc1c(C(=O)NC2COC2)cc(-c2cc(C(C)(C)C)cc(C(C)(C)C)c2)n1CC1CC2CCC1C2 (stereo not drawn) [1/117]	6.8	7.0	501			
Cc1c(C(=O)NC2CCOCC2)cc(-c2ccc(-c3nnc(C(C)(C)C)o3)c(C(C)(C)C)c2)n1CC1CCCCC1 [17/251]				6.3/6.9/6.9	6.3/6.9/6.9	501
Cc1c(-c2cc(C(=O)NC3CCOCC3)c(C)n2CC2CCCCC2)ccc(S(=O)(=O)NC(C)(C)C)c1C [17/273]	7.2	7.3	1580			
Cc1c(C(=O)NC2CS(=O)(=O)C2)cc(-c2ccc(S(=O)(=O)NC(C)(C)C)c(C(C)(C)C)c2)n1CC1CCCCC1 [17/91]				6.2/7.1/7.0	6.2/7.1/7.0	631
CNC(=O)c1ccc(-c2cc(C(=O)NC3CCOCC3)c(C)n2CC2CCCCC2)cc1C(C)(C)C [6/4]	< 4.7	< 4.7	10000			
Cc1c(C(=O)NC2CCOCC2)cc(-c2cc(Cl)c(S(=O)(=O)NC(C)(C)C)c(C(F)(F)F)c2)n1CC1CCCCC1 [17/113]	6.8	6.8	501			
Cc1c(C(=O)NC23CCC(C(=O)O)(CC2)C3)cc(-c2cc(C(C)(C)O)cc(C3(C)CC3)c2)n1CC1CCCCC1 [17/301]	7.6	7.6	2000			
Cc1c(C(=O)NCC2(O)CCOCC2)cc(-c2ccc(S(=O)(=O)NC(C)(C)C)c3ccccc23)n1CC1CCCCC1 [17/239]	7.9	8.1	1000			
Cc1c(C(=O)NC2CCOCC2)cc(-c2ccc(S(=O)(=O)NC(C)(C)C)c(C(F)(F)F)c2)n1S(=O)(=O)C1CCCCC1 [17/218]	7.1	7.3	316			
CC(C)(C)NS(=O)(=O)c1ccc(-c2cc(C(=O)NCC3(O)CCOCC3)c(C(F)(F)F)n2CC2CCCCC2)cc1C(C)(C)C [1/27]	< 4.7	< 4.7	12600			
Cc1c(C(=O)NC2SC(=O)NC2=O)cc(-c2cc(C(C)(C)C)c3c(c2)C2(CCO3)CC2)n1CC1CCCCC1 (stereo not drawn) [17/24]	5.8	5.7	3160			
